Assay results published in paper PMC6452685, “Lysyl-tRNA synthetase as a drug target in malaria and cryptosporidiosis” (Proceedings of the National Academy of Sciences of the …, 2019).
Where two headings read alike, the source gives them in different places.

Experiments:
[1] = test system: Nanoluciferase-expressing C. parvum; test: Inhibition of Nanoluciferase expressing C. parvum growth in HCT-8 cells; type: cell-based, Cryptosporidium parvum; conditions: read-out: Nluc Cp EC50
Experimental: […] ( UW ) Inhibition of C. parvum growth and EC50 det erm i nat i ons w ere perf ormed w i t h a Na nol uci feras e-expressing C. parvum parasi t e i n HC T-8 cel l s. Oocys ts were propag ated i n cal v es (Cryptosporidium Producti on La borato ry, School o f Ani mal and Comparati ve Bi omedi cal Sci ences, Universi ty of Ari zona) and i sol ated from stool s by sucrose suspensi on and cesi um chl ori de gradi ent. HCT-8 cel ls were seeded to a 384-well plate and allowed to grow for 72 h to reach 90-100% confluence at 37 °C in 5% CO2. Oocysts were activated by 10-15 mi n i ncubat i on i n 10% bl each (0. 6% s odi um hy pochl o ri t e) at room temperature and then washed wi th DPBS. 2000 oocysts per wel l were appl ied to 384-well pl at es wi t h RPM I-1640 medi um s up pl ement ed w i th 10% ho rs e s erum and 1% pe ni ci l li n/s t rept omy ci n at the same time as compound addition. The compound and the oocysts were left in place for the full 72 h g row t h t i me. The amount of l uci feras e-induced light emission was determined by lysing the cell monol ayer, addi ng Nan o-Glo® luciferase reagent (Promega, Madison, W I , USA), and readi ng o n a n EnVi s i on M ul t il abe l Pl at e Re ade r (P e rk i n El me r, Wal t ham, M A, USA). C ont rol s i ncl ude d i nfe ct e d w e lls with no addition of inhibitors and the background was taken as wells where no C. parvum was adde d.
The per cent ag e of g row t h versus infected ce lls with no inhibitor was calculated for each concentrati on of BKI an d the hal f maxi mal effecti ve concentrati on (EC50) v al ues were determi ned by a si gmoi dal dose response wi th vari abl e sl ope usi ng GraphPad Pri sm versi on 6.07 (GraphPa d Software, La Jol l a, Cal i forni a, USA). […]

C. parvum = test: In vitro Cryptosporidium time-kill curve assay in HCT-8 cells; type: cell-based; conditions: C. parvum in HCT-8 cell culture
Experimental: SUPPLEMENTARY INFORMATION ileocecal adenocarcinoma (HCT-8) cel l s (ATC C ) w ere cul t ured i n RP M I 1640 medi um (I nv i t rog en) supplemented with 10% fetal bovine serum (Sigma-Al dri ch), 120 U/ml peni ci l l i n, and 12 0 µg/ml streptomycin (ATCC), and used between passages 9 and 39 for all experiments. Cryptospori di um parvum Iowa isolate oocysts were purchased from Bunch Grass Farm (Deary, ID). Oocys ts were triggered to excyst by treating with 10 mM hydrochloric acid (10 min, 37°C) and the n 2 mM sodium taurocholate (Sigma-Al d r i c h ) i n P B S ( 1 0 m i n , […] ) . They w ere t hen added t o > 95% co nfl uent HC T-8 cel l monol ay ers i n 384-well plates (~5,500 oocysts/well). Ex pe ri me nt al compounds w e re adde d 3 h after i nfecti on, and assay pl ates were incubated for 48 h post-infection at 37°C unde r 5% CO2. Assay pl at es w ere t hen w as hed t h ree t i mes w i t h PBS cont ai ni ng 11 1 mM D-galactose, fixed with 4% parafo rmal dehy de i n PBS, t reat ed f or 10 mi n at 3 7°C w i t h 0. 25% T ri t on X-100, an d s t ai ned w i t h 1. […] […] […] Curves were pl ot t ed and t he hal f-maxi mal effecti ve (EC50) and 90% effecti v e concentrati on (EC90) were cal cul ated us i ng G raphPad Pri s m s oft w are, v ersi on 6. 01. […]
Cryptospori di um parvum elimination during cul ture in HCT-8 cells was measured as recently des cri bed (10). […]

[2] = test system: P. falciparum male/female gamete formation; test: P. falciparum male/female gamete formation; type: cell-based; conditions: Plasmodium falciparum
Experimental: Thi s i s bas ed on methods previ ousl y reported (14). Mature P. falciparum stage V gametocytes (NF54)
were incubated with test compound for 24 h at 3 7°C i n 384-well plates containing complete culture
medi um (RPMI 1640, 25 mM HEPES, 2 g/l D-glucose, 2 g/l sodium bicarbonate, 50 mg/l
Gametogenesis was triggered by dis pens i ng 10 µl ookinete medium (RPMI 1640, 25 mM HEPES, 2 g/l
D-glucose, 2 g/l sodium bicarbonate, 50 mg/l hy pox ant hi ne, 100 µM xanthurenic acid) also
contai ni ng 2. 7 µg/ml anti-Pfs25-Cy3 into each well and cooling the plate on a metal block at 4 °C fo r
4 mi n. Fi fteen s l ater male gametogenesis was recorded by b ri ghtfi el d i magi ng usi ng ti m e s 6 object i v e
and then the pl ate stored at 2 6 °C for a fu rther 24 h to allow female gametes to develop. Female
gamete formation was assessed by fluorescence m icroscopy using x6 objective to identify anti-Pfs25-
gentian violet negative and positive controls.
3.1 3 Act iv it y a gains t Cry pt os pori diu m h omi nis (CALIBR)
Thi s i s bas ed on methods previ ousl y reported (10).

[3] = Cryptosporidium parvum, HCT-8, C. parvum growth in HCT-8 cells

For `C[C@H]1CCC[C@H](C[C@H]2Cc3cc(O)cc(O)c3C(=O)O2)O1` [Compound 1, cladosporin, reference compound], the EC50 ([1]; C. parvum growth in HCT-8 cells) was 670 nM, the EC50 [1, 3] was 700 nM and the “time-kill curve, parasite elimination” value (C. parvum) was “eliminated parasites at an exponential rate”.
For `O=C(NCC1CCCCC1)c1cc(=O)c2ccccc2o1` [Compound 2], the EC50 [1, 3] was 1200 nM.
`O=C(NCC1CCCCC1)c1cc(=O)c2cc(F)ccc2o1` [Compound 3] showed an EC50 [1, 3] of 810 nM.
Work on `O=C(NCC1(O)CCCCC1)c1cc(=O)c2cc(F)ccc2o1` [Compound 4] yielded an EC50 [1, 3] of 140 nM.
`O=C(NCC1(O)CCC(F)(F)CC1)c1cc(=O)c2cc(F)ccc2o1` [Compound 5] was tested, and the EC50 [1, 3] was 2500 nM, the EC50 [2] was greater than 1000 nM and the “time-kill curve, parasite elimination” value (C. parvum) was “eliminated parasites at an exponential rate”.
